Measured values taken from US20230279020A9, “CARM1 INHIBITORS AND USES THEREOF” (Epizyme, Inc., priority 2013, published 2023).

Target: Human CARM1 (PRMT4) (Homo sapiens (Human), UniProt Q86X55)
Assay: CARM1 enzyme assay on peptide substrate (3H-SAM Flashplate)
Conditions: Biochemical potencies, classification codes; read-out: Biochem IC50

Human CARM1 (PRMT4), sequence (Q86X55 other isoform, or with tags, fused parts or gaps isoform Q86X55-1): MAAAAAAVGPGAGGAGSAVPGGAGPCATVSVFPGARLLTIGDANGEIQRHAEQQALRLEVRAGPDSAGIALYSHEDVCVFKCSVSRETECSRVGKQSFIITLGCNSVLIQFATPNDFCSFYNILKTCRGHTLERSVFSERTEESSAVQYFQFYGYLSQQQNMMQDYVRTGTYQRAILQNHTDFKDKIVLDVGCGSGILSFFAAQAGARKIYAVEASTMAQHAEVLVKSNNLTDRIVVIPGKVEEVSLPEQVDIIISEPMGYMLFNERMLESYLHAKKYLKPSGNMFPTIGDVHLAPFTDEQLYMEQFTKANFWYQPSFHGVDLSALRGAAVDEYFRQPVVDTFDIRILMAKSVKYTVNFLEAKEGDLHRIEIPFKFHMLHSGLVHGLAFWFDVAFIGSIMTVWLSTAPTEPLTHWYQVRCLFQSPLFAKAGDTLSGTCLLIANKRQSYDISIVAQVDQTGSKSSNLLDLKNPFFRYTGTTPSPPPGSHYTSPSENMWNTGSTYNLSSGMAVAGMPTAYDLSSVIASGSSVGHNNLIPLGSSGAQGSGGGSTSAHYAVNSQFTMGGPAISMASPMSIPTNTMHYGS

`CNCC(O)COc1cccc(-c2nc(NCC3(N4CC(F)(F)C4)CCOCC3)c(C)c(-c3c(C)noc3C)n2)c1` (stereo not drawn) [Example 302-1a] was tested. Which IC50 did it give?
The IC50 was less than 100 nM.

For `CNCC(O)COc1cccc(-c2nc(OCC3CCN(C4CC4)CC3)c(C)c(-c3c(C)noc3C)n2)c1` (stereo not drawn) [Example 303-1a], which IC50 is on record?
Its IC50 is less than 100 nM.

How did the IC50 turn out when `CNC[C@H](O)COc1ccc(Cl)c(-c2nc(NC3CCN(C(=O)OC)CC3)c(Cl)c(-c3c(C)noc3C)n2)c1` [Example 305-1a] was run?
The IC50 was less than 100 nM.

`CNCC(O)COc1cccc(-c2nc(NC[C@@H]3CN(C(=O)OC)CCO3)c(C)c(-c3c(C)noc3C)n2)c1` (stereo partly drawn) [Example 306-1a] was tested. Which IC50 did it give?
Its IC50 is less than 100 nM.

With `CNCC(O)COc1cccc(-c2nc(N[C@@H]3CCNC3)c(C)c(-c3c(C)noc3C)n2)c1` (stereo partly drawn) [Example 307-1a] as the molecule, how does the IC50 read?
The IC50 was less than 100 nM.

With `CNCC(O)COc1cccc(-c2nc(-c3c(C)noc3C)c(C)c(N(C)C)n2)c1` (stereo not drawn) [Example 308-1a] as the molecule, how does the IC50 read?
Its IC50 is less than 100 nM.

For `CNCC(O)COc1cccc(-c2nc(-c3c(C)noc3C)c(C)c(N3CC4(CN(C(=O)N(C)C)C4)C3)n2)c1` (stereo not drawn) [Example 309-1a], which IC50 is on record?
The IC50 was less than 100 nM.

For `CNCC(O)COc1cc(Cl)cc(-c2nc(N[C@@H]3CCOC3)c(C)c(-c3ccncc3)n2)c1` (stereo partly drawn) [Example 331-1a], which IC50 is on record?
The IC50 was less than 100 nM.

Which IC50 does the source give for `CNCC(O)COc1cccc(-c2nc(N[C@@H]3CCOC3)c(C)c(-c3ccncc3)n2)c1` (stereo partly drawn) [Example 332-1a] here?
The IC50 was less than 100 nM.

With `CNCC(O)COc1cc(Cl)cc(-c2nc(-c3ccncc3)c(C)c(N(C)[C@H]3CCOC3)n2)c1` (stereo partly drawn) [Example 334-1a] as the molecule, how does the IC50 read?
The IC50 was less than 100 nM.

With `CNCC(O)COc1cccc(-c2nc(NC3CCOC3)c(C)c(-c3cn(C)nn3)n2)c1` (stereo not drawn) [Example 335-1a] as the molecule, how does the IC50 read?
Its IC50 is less than 100 nM.

Which IC50 does the source give for `CNCC(O)COc1cccc(-c2nc(N[C@@H]3CCOC3)c(C)c(-c3cn[nH]c3)n2)c1` (stereo partly drawn) [Example 338-1a] here?
Its IC50 is less than 100 nM.

How did the IC50 turn out when `CNCC(O)COc1cccc(-c2nc(-c3ccncc3)c(C)c(N(C)[C@@H]3CCOC3)n2)c1` (stereo partly drawn) [Example 339-1a] was run?
Its IC50 is less than 100 nM.

With `CNCC(O)COc1cccc(-c2nc(N[C@@H]3CCOC3)c(C)c(-c3cncc(C(=O)OC)c3)n2)c1` (stereo partly drawn) [Example 340-1a] as the molecule, how does the IC50 read?
Its IC50 is less than 100 nM.

For `CNCC(O)COc1cccc(-c2nc(N[C@@H]3CCOC3)c(C)c(-c3cncc(C#N)c3)n2)c1` (stereo partly drawn) [Example 341-1a], which IC50 is on record?
Its IC50 is less than 100 nM.

How did the IC50 turn out when `CNCC(O)COc1cccc(-c2nc(N[C@@H]3CCOC3)c(C)c(-c3cncnc3)n2)c1` (stereo partly drawn) [Example 350-1a] was run?
The IC50 was less than 100 nM.

Which IC50 does the source give for `CNCC(O)COc1cccc(-c2nc(NC3CCOC3)c(C)c(N3CCN[C@@H](C)C3)n2)c1` (stereo partly drawn) [Example 351-1a] here?
The IC50 was less than 100 nM.

With `CNCC(O)COc1cccc(-c2nc(NC3CCOC3)c(C)c(N3CCNC[C@H]3C)n2)c1` (stereo partly drawn) [Example 352-1a] as the molecule, how does the IC50 read?
The IC50 was less than 100 nM.

`CNCC(O)COc1cccc(-c2nc(N[C@@H]3CCOC3)c(C)c(-c3cnc4[nH]ccc4c3)n2)c1` (stereo partly drawn) [Example 355-1a] was tested. Which IC50 did it give?
The IC50 was less than 100 nM.

For `CNCC(O)COc1cccc(-c2nc(N[C@@H]3CCOC3)c(C)c(-c3cnc(OC)nc3)n2)c1` (stereo partly drawn) [Example 356-1a], which IC50 is on record?
The IC50 was less than 100 nM.

`CNCC(O)COc1cccc(-c2nc(N[C@@H]3CCOC3)c(C)c(N3CCC[C@@H](O)C3)n2)c1` (stereo partly drawn) [Example 358-1a] was tested. Which IC50 did it give?
Its IC50 is less than 100 nM.

How did the IC50 turn out when `CNCC(O)COc1cccc(-c2nc(N[C@@H]3CCOC3)c(C)c(N3CCn4ccnc4C3)n2)c1` (stereo partly drawn) [Example 359-1a] was run?
The IC50 was less than 100 nM.

`CNCC(O)COc1cccc(-c2nc(N[C@H]3CCOC3)c(C)c(N3CCC(O)CC3)n2)c1` (stereo partly drawn) [Example 362-1a] was tested. Which IC50 did it give?
The IC50 was less than 100 nM.

`CNCC(O)COc1cccc(-c2nc(N[C@H]3CCOC3)c(C)c(C(=O)N(C)CC3CCOCC3)n2)c1` (stereo partly drawn) [Example 363-1a] was tested. Which IC50 did it give?
The IC50 was 100 to 1000 nM.

For `CNCC(O)COc1cccc(-c2nc(NCCCCl)c(C)c(N[C@@H]3CCOC3)n2)c1` (stereo partly drawn) [Example 366-1a], which IC50 is on record?
Its IC50 is less than 100 nM.

How did the IC50 turn out when `CNCC(O)COc1cccc(-c2nc(N[C@@H]3CCOC3)c(C)c(N3CCC(N4CCOCC4)CC3)n2)c1` (stereo partly drawn) [Example 367-1a] was run?
Its IC50 is less than 100 nM.

Which IC50 does the source give for `CNCC(O)COc1cccc(-c2nc(N[C@@H]3CCOC3)c(C)c(N3CC[C@H](N(C)C)C3)n2)c1` (stereo partly drawn) [Example 368-1a] here?
The IC50 was less than 100 nM.

`CNCC(O)COc1cccc(-c2nc(N[C@@H]3CCOC3)c(C)c(N3CC[C@@H](OC)C3)n2)c1` (stereo partly drawn) [Example 369-1a] was tested. Which IC50 did it give?
Its IC50 is less than 100 nM.

With `CNCC(O)COc1cccc(-c2nc(N[C@@H]3CCOC3)c(C)c(N3CCC(OC)CC3)n2)c1` (stereo partly drawn) [Example 370-1a] as the molecule, how does the IC50 read?
Its IC50 is less than 100 nM.

`CNCC(O)COc1cccc(-c2nc(N[C@@H]3CCOC3)c(Cl)c(N3CCOCC3)n2)c1` (stereo partly drawn) [Example 376-1a] was tested. Which IC50 did it give?
Its IC50 is less than 100 nM.

For `CNCC(O)COc1cccc(-c2nc(N[C@@H]3CCOC3)c(C)c(N3CCC3)n2)c1` (stereo partly drawn) [Example 377-1a], which IC50 is on record?
Its IC50 is less than 100 nM.

`CNCC(O)COc1cccc(-c2nc(N[C@@H]3CCOC3)c(C)c(N(C)C3CCN(C)CC3)n2)c1` (stereo partly drawn) [Example 379-1a] was tested. Which IC50 did it give?
Its IC50 is less than 100 nM.

How did the IC50 turn out when `CNCC(O)COc1cccc(-c2nc(N[C@H]3CCOC3)c(C)c(-n3nc(C)cc3C)n2)c1` (stereo partly drawn) [Example 381-1a] was run?
Its IC50 is less than 100 nM.

`CNCC(O)COc1cccc(-c2nc(N[C@@H]3CCOC3)c(C)c(-n3nc(C)cc3C)n2)c1` (stereo partly drawn) [Example 382-1a] was tested. Which IC50 did it give?
The IC50 was less than 100 nM.

With `CNCC(O)COc1cccc(-c2nc(N[C@@H]3CCOC3)c(C)c(N3CCN(CC(=O)N(C)C)CC3)n2)c1` (stereo partly drawn) [Example 391-1a] as the molecule, how does the IC50 read?
The IC50 was less than 100 nM.

How did the IC50 turn out when `CNCC(O)COc1cccc(-c2nc(N[C@@H]3CCOC3)c(C)c(N3CC[C@@H](N(C)C)C3)n2)c1` (stereo partly drawn) [Example 392-1a] was run?
The IC50 was less than 100 nM.

Which IC50 does the source give for `CNCC(O)COc1cccc(-c2nc(N[C@@H]3CCOC3)c(C)c(N3Cc4cccnc4C3)n2)c1` (stereo partly drawn) [Example 394-1a] here?
The IC50 was less than 100 nM.

How did the IC50 turn out when `CNCC(O)COc1cccc(-c2nc(N[C@@H]3CCOC3)c(C)c(N3CCN(C(C)=O)[C@@H](C)C3)n2)c1` (stereo partly drawn) [Example 396-1a] was run?
Its IC50 is less than 100 nM.

Which IC50 does the source give for `CNCC(O)COc1cccc(-c2nc(NC3CCOC3)c(C)c(C(=O)NC3CCN(C)CC3)n2)c1` (stereo not drawn) [Example 397-1a] here?
The IC50 was less than 100 nM.

With `CNCC(O)COc1cccc(-c2nc(NC3CCOC3)c(C)c(N3CC4(CCNCC4)c4ccccc43)n2)c1` (stereo not drawn) [Example 398-1a] as the molecule, how does the IC50 read?
Its IC50 is less than 100 nM.

With `CNCC(O)COc1cccc(-c2nc(N[C@@H]3CCOC3)c(C)c(-c3ccc(OC)nc3)n2)c1` (stereo partly drawn) [Example 408-1a] as the molecule, how does the IC50 read?
The IC50 was less than 100 nM.

`CNCC(O)COc1cccc(-c2nc(N[C@@H]3CCOC3)c(C)c(N3CC4CCC(C3)O4)n2)c1` (stereo partly drawn) [Example 412-1a] was tested. Which IC50 did it give?
Its IC50 is less than 100 nM.

How did the IC50 turn out when `CNCC(O)COc1cccc(-c2nc(N[C@@H]3CCOC3)c(C)c(C3=CC(C)(C)NC(C)(C)C3)n2)c1` (stereo partly drawn) [Example 415-1a] was run?
The IC50 was less than 100 nM.

With `CNCC(O)COc1cccc(-c2nc(NC3CCOC3)c(C)c(N3CCN(C(C)=O)C[C@H]3C)n2)c1` (stereo partly drawn) [Example 421-1a] as the molecule, how does the IC50 read?
Its IC50 is less than 100 nM.

For `CNCC(O)COc1cccc(-c2nc(N[C@@H]3CCOC3)c(C)c(N3CCNCC3)n2)c1` (stereo partly drawn) [Example 422-1a], which IC50 is on record?
Its IC50 is less than 100 nM.

Which IC50 does the source give for `CNCC(O)COc1cccc(-c2nc(N[C@@H]3CCOC3)c(C)c(N3CCC4(CC3)CNC(=O)C4)n2)c1` (stereo partly drawn) [Example 424-1a] here?
The IC50 was less than 100 nM.

How did the IC50 turn out when `CNCC(O)COc1cccc(-c2nc(N[C@@H]3CCOC3)c(C)c(N3CCS(=O)(=O)CC3)n2)c1` (stereo partly drawn) [Example 425-1a] was run?
The IC50 was less than 100 nM.

`CNCC(O)COc1cccc(-c2nc(N[C@@H]3CCOC3)c(C)c(N3Cc4ccncc4C3)n2)c1` (stereo partly drawn) [Example 427-1a] was tested. Which IC50 did it give?
Its IC50 is less than 100 nM.

For `CNCC(O)COc1cccc(-c2nc(N[C@@H]3CCOC3)c(C)c(N3CCC4(CCNCC4)CC3)n2)c1` (stereo partly drawn) [Example 429-1a], which IC50 is on record?
The IC50 was less than 100 nM.

Which IC50 does the source give for `CNCC(O)COc1cccc(-c2nc(N[C@@H]3CCOC3)c(C)c(N3CCN(S(C)(=O)=O)CC3)n2)c1` (stereo partly drawn) [Example 434-1a] here?
The IC50 was less than 100 nM.

Which IC50 does the source give for `CNCC(O)COc1cccc(-c2nc(N[C@@H]3CCOC3)c(C)c(N3CCN(C)C(=O)C3)n2)c1` (stereo partly drawn) [Example 435-1a] here?
The IC50 was less than 100 nM.
